# Measurements as given in patent US20140094424A1, “MICROBICIDAL COMPOSITIONS AND METHODS OF PRODUCTION USE THEREOF” (priority 2011, published 2014).
# Legend:
# [1] = tested on: Pseudomonas fluorescens (D); test: MBC (minimum bactericidal concentration) test in Wash NEXT reagent; format: cell-based
# [2] = tested on: Pseudomonas aeruginosa (AY); test: as above; format: cell-based
# [3] = at 72 hours, listed as Na Azide
compound,measurement,setting,value
"[N-]=[N+]=[N-] [Sodium Azide, sodium azide]",MBC test growth score,"[1]; 10% preservative, 8 hour",+
same,MBC test growth score,"[1]; 10% preservative, 24 hour",+
same,MBC test growth score,"[1]; 10% preservative, 48 hour",+
same,MBC test growth score,"[1]; 10% preservative, 72 hour",+
same,MBC test growth score,"[1]; 20% preservative, 8 hour",+
same,MBC test growth score,"[1]; 20% preservative, 24 hour",+
same,MBC test growth score,"[1]; 20% preservative, 48 hour",+
same,MBC test growth score,"[1]; 20% preservative, 72 hour",+
same,MBC test growth score,"[1]; 30% preservative, 8 hour",+
same,MBC test growth score,"[1]; 30% preservative, 24 hour",+
same,MBC test growth score,"[1]; 30% preservative, 48 hour",+
same,MBC test growth score,"[1]; 30% preservative, 72 hour",+
same,MBC test growth score,"[1]; 40% preservative, 8 hour",+
same,MBC test growth score,"[1]; 40% preservative, 24 hour",+
same,MBC test growth score,"[1]; 40% preservative, 48 hour",+
same,MBC test growth score,"[1]; 40% preservative, 72 hour",+
same,MBC test growth score,"[1]; 50% preservative, 8 hour",+
same,MBC test growth score,"[1]; 50% preservative, 24 hour",+
same,MBC test growth score,"[1]; 50% preservative, 48 hour",+
same,MBC test growth score,"[1]; 50% preservative, 72 hour",+
same,MBC test growth score,"[1]; 60% preservative, 8 hour",+
same,MBC test growth score,"[1]; 60% preservative, 24 hour",+
same,MBC test growth score,"[1]; 60% preservative, 48 hour",+
same,MBC test growth score,"[1]; 60% preservative, 72 hour",+
same,MBC test growth score,"[1]; 70% preservative, 8 hour",+
same,MBC test growth score,"[1]; 70% preservative, 24 hour",+
same,MBC test growth score,"[1]; 70% preservative, 48 hour",+
same,MBC test growth score,"[1]; 70% preservative, 72 hour",+
same,MBC test growth score,"[1]; 80% preservative, 8 hour",+
same,MBC test growth score,"[1]; 80% preservative, 24 hour",+
same,MBC test growth score,"[1]; 80% preservative, 48 hour",+
same,MBC test growth score,"[1]; 80% preservative, 72 hour",+
same,MBC test growth score,"[1]; 90% preservative, 8 hour",+
same,MBC test growth score,"[1]; 90% preservative, 24 hour",+
same,MBC test growth score,"[1]; 90% preservative, 48 hour",+
same,MBC test growth score,"[1]; 90% preservative, 72 hour",+
same,MBC test growth score,"[1]; 100% preservative, 8 hour",+
same,MBC test growth score,"[1]; 100% preservative, 24 hour",+
same,MBC test growth score,"[1]; 100% preservative, 48 hour",+
same,MBC test growth score,"[1]; 100% preservative, 72 hour",+
same,total kill at % preservative (MBC),[1]; [3],No kill @ 100%
same,MBC test growth score,"[2]; 10% preservative, 8 hour",+
same,MBC test growth score,"[2]; 10% preservative, 24 hour",+
same,MBC test growth score,"[2]; 10% preservative, 48 hour",+
same,MBC test growth score,"[2]; 10% preservative, 72 hour",+
same,MBC test growth score,"[2]; 20% preservative, 8 hour",+
same,MBC test growth score,"[2]; 20% preservative, 24 hour",+
same,MBC test growth score,"[2]; 20% preservative, 48 hour",+
same,MBC test growth score,"[2]; 20% preservative, 72 hour",+
same,MBC test growth score,"[2]; 30% preservative, 8 hour",+
same,MBC test growth score,"[2]; 30% preservative, 24 hour",+
same,MBC test growth score,"[2]; 30% preservative, 48 hour",+
same,MBC test growth score,"[2]; 30% preservative, 72 hour",+
same,MBC test growth score,"[2]; 40% preservative, 8 hour",+
same,MBC test growth score,"[2]; 40% preservative, 24 hour",+
same,MBC test growth score,"[2]; 40% preservative, 48 hour",+
same,MBC test growth score,"[2]; 40% preservative, 72 hour",+
same,MBC test growth score,"[2]; 50% preservative, 8 hour",+
same,MBC test growth score,"[2]; 50% preservative, 24 hour",+
same,MBC test growth score,"[2]; 50% preservative, 48 hour",+
same,MBC test growth score,"[2]; 50% preservative, 72 hour",+
same,MBC test growth score,"[2]; 60% preservative, 8 hour",+
same,MBC test growth score,"[2]; 60% preservative, 24 hour",+
same,MBC test growth score,"[2]; 60% preservative, 48 hour",+
same,MBC test growth score,"[2]; 60% preservative, 72 hour",+
same,MBC test growth score,"[2]; 70% preservative, 8 hour",+
same,MBC test growth score,"[2]; 70% preservative, 24 hour",+
same,MBC test growth score,"[2]; 70% preservative, 48 hour",+
same,MBC test growth score,"[2]; 70% preservative, 72 hour",+
same,MBC test growth score,"[2]; 80% preservative, 8 hour",+
same,MBC test growth score,"[2]; 80% preservative, 24 hour",+
same,MBC test growth score,"[2]; 80% preservative, 48 hour",+
same,MBC test growth score,"[2]; 80% preservative, 72 hour",+
same,MBC test growth score,"[2]; 90% preservative, 8 hour",+
same,MBC test growth score,"[2]; 90% preservative, 24 hour",+
same,MBC test growth score,"[2]; 90% preservative, 48 hour",+
same,MBC test growth score,"[2]; 90% preservative, 72 hour",+
same,MBC test growth score,"[2]; 100% preservative, 8 hour",+
same,MBC test growth score,"[2]; 100% preservative, 24 hour",+
same,MBC test growth score,"[2]; 100% preservative, 48 hour",+
same,MBC test growth score,"[2]; 100% preservative, 72 hour",+
same,total kill at % preservative (MBC),[2]; [3],No kill @ 100%
